Assay [1] has as its system Control-aptamer (DNA, single strand, phosphorothioate linkages (positions as in ref 24)) TTCGGCCTGGGGGCGGCCAGTTCGGGTCCAGTCGCGGGAG
Briefly: quartz crystal microbalance (27 MHz). To be noted: immobilised compound; highest concentration not stated.

For assay [2], the system named is GLAP-aptamer (DNA, aptamer, phosphorothioate linkage at each three bases (exact positions drawn in Figure 1C)) GCGGGTTGGGAGCCACTAGTAGCAACGTGCGACCCTCTACGAAGCAAACCATCCTCA
The assay is described as follows: quartz crystal microbalance (27 MHz), curve fitting. As to conditions: immobilised compound; not affected by 2% fetal bovine serum.

The test system of assay [3] is AGE-aptamer (DNA, aptamer, phosphorothioate linkages (positions drawn in Figure 3A)) TGTAGCCCGAGTATCATTCTCCATCGCCCCCAGATACAAG
The description is as above. As to conditions: aptamer immobilised, GLAP added; not affected by 2% fetal bovine serum.

Assay [4] addresses T1, RAGE (receptor for AGEs), vRAGE (Homo sapiens, UniProt Q15109).
T1 construct: gene AGER
Briefly: 27-MHz quartz crystal microbalance, vRAGE immobilized. It is filed as binding.

T1 sequence (Q15109 23-116 limits assumed): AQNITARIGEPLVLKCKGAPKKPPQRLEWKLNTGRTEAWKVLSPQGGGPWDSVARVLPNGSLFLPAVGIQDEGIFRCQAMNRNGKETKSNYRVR

One may read the KD as the free concentration of one partner at which half of the binding sites on the other are occupied at equilibrium, for simple one-to-one binding. In the case of `CC(=O)NC(CCCC[n+]1cc(O)cc(CO)c1)C(=O)O` (racemic), the binding entry in assay [1] was “no”. In addition, the KD turned out to be 2.6 µM in assay [2] and 33 µM in assay [3].
As a reminder, the Kd is the concentration at which binding is half-saturated. As for GLAP, the Kd in assay [4] was 59 µM.

Source of the values: PMC4299541 (Cardiovascular Diabetology, 2015).
